Experimental data: US8372843B2, “Quinolines useful as modulators of ION channels” (Vertex Pharmaceuticals Incorporated, priority 2005, dated 2013)
Like-named read-outs stand apart in the source and are kept apart here.

Assays:
NaV1.8 [1] = biological target: T1, NaV1.8 (Homo sapiens, UniProt Q9Y5Y9); experiment: Activity against NaV1.8 channel (Table 4); type: cell-based
Procedure: Compounds of the invention are useful as antagonists of voltage-gated sodium ion channels. Antagonist properties of test compounds were assessed as follows. Cells expressing the NaV of interest were placed into microtiter plates. After an incubation period, the cells were stained with fluorescent dyes sensitive to the transmembrane potential. The test compounds were added to the microtiter plate. The cells were stimulated with either a chemical or electrical means to evoke a NaV dependent membrane potential change from unblocked channels, which was detected and measured with trans-membrane potential-sensitive dyes. Antagonists were detected as a decreased membrane potential response to the stimulus. The optical membrane potential assay utilized voltage-sensitive FRET sensors described by Gonzalez and Tsien (See, Gonzalez, J. E. and R. Y. Tsien (1995) “Voltage sensing by fluorescence resonance energy transfer in single cells” Biophys J 69(4): 1272-80, and Gonzalez, J. E. and R. Y. Tsien (1997) “Improved indicators of cell membrane potential that use fluorescence resonance energy transfer” Chem Biol 4(4): 269-77) in combination with instrumentation for measuring fluorescence changes such as the Voltage/Ion Probe Reader (VIPR®) (See, Gonzalez, J. E., K. Oades, et al. (1999) “Cell-based assays and instrumentation for screening ion-channel targets” Drug Discov Today 4(9): 431-439). B) VIPR® optical membrane potential assay method with chemical stimulation
24 hours before the assay on VIPR, CHO cells endogenously expressing a NaV1.2 type voltage-gated NaV are seeded in 96-well poly-lysine coated plates at 60,000 cells per well. […] The cells are then incubated for 20-30 minutes. • 7) Once the incubation is complete, the cells are ready to be assayed on VIPR® with a sodium addback protocol. […]
The following is an example of how NaV1.3 inhibition activity is measured using the optical membrane potential method#2. […]

neuropathic pain = details: in vivo; cited from earlier work
NaV1.2 = NaV1.2 (Homo sapiens, UniProt Q99250); details: read-out: TTX IC50; cited from earlier work
NaV1.9 = NaV1.9 (Homo sapiens, UniProt Q9UI33); details: read-out: TTX IC50; cited from earlier work
NaV1.8 [2] = biological target: T1, NaV1.8; details: read-out: TTX IC50; cited from earlier work
NaV1.3 = NaV1.3 (Homo sapiens, UniProt Q9NY46); details: read-out: TTX IC50; cited from earlier work
NaV1.6 = NaV1.6 (Homo sapiens, UniProt Q9UQD0); details: read-out: TTX IC50; cited from earlier work
NaV1.1 = NaV1.1 (Homo sapiens, UniProt P35498); details: read-out: TTX IC50; cited from earlier work

NaV1.2, sequence (Q99250 whole entry, looked up): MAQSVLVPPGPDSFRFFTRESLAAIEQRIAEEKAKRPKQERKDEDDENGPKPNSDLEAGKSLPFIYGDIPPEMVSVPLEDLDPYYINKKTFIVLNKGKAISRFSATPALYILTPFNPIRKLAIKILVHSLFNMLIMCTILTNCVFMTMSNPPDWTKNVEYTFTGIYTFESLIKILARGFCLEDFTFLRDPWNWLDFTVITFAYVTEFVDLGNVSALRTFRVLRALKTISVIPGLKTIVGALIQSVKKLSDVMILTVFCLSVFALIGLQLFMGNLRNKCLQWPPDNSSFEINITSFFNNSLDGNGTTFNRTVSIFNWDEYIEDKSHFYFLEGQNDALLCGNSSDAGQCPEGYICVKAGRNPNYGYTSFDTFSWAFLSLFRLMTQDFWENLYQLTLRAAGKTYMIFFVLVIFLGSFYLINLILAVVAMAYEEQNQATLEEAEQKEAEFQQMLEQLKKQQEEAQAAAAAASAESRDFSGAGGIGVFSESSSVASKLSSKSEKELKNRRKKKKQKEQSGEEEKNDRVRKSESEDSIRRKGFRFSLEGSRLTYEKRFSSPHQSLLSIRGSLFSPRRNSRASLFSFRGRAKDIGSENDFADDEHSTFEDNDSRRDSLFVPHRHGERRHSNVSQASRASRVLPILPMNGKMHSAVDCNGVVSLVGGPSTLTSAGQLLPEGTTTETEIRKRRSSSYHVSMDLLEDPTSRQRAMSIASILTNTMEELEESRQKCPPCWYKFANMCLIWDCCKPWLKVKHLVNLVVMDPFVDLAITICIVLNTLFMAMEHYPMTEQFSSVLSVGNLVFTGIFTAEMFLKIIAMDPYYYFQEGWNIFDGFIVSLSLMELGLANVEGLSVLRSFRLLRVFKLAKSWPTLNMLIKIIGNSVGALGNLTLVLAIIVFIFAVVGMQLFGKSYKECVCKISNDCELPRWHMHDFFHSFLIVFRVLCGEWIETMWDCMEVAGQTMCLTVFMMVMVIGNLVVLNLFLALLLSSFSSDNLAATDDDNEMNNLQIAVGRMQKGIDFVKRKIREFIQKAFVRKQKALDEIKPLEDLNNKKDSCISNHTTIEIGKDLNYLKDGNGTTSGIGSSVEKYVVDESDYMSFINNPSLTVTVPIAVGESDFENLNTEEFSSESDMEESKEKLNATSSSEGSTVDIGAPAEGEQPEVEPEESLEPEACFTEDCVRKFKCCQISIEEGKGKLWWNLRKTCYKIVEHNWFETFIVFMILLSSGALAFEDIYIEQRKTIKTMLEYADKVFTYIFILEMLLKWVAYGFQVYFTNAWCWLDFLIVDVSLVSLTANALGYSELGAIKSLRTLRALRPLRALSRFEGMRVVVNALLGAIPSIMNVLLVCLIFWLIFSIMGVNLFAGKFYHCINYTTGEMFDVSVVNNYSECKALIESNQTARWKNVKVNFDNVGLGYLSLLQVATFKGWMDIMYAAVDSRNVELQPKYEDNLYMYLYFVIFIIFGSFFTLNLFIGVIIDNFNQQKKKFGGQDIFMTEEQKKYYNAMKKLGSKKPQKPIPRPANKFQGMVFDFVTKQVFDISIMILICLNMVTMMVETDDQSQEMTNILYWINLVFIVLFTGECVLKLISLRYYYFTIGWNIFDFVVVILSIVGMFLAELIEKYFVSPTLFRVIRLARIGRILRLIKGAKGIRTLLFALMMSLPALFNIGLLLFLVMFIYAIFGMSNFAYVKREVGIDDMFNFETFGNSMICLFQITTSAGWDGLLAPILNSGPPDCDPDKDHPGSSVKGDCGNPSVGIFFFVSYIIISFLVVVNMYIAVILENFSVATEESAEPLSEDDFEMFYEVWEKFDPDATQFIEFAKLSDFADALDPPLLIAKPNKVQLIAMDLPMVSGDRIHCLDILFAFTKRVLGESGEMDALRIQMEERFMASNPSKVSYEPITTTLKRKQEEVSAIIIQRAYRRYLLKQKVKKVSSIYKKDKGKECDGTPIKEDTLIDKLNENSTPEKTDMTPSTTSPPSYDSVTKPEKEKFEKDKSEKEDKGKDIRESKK
T1 sequence (Q9Y5Y9 whole entry, looked up): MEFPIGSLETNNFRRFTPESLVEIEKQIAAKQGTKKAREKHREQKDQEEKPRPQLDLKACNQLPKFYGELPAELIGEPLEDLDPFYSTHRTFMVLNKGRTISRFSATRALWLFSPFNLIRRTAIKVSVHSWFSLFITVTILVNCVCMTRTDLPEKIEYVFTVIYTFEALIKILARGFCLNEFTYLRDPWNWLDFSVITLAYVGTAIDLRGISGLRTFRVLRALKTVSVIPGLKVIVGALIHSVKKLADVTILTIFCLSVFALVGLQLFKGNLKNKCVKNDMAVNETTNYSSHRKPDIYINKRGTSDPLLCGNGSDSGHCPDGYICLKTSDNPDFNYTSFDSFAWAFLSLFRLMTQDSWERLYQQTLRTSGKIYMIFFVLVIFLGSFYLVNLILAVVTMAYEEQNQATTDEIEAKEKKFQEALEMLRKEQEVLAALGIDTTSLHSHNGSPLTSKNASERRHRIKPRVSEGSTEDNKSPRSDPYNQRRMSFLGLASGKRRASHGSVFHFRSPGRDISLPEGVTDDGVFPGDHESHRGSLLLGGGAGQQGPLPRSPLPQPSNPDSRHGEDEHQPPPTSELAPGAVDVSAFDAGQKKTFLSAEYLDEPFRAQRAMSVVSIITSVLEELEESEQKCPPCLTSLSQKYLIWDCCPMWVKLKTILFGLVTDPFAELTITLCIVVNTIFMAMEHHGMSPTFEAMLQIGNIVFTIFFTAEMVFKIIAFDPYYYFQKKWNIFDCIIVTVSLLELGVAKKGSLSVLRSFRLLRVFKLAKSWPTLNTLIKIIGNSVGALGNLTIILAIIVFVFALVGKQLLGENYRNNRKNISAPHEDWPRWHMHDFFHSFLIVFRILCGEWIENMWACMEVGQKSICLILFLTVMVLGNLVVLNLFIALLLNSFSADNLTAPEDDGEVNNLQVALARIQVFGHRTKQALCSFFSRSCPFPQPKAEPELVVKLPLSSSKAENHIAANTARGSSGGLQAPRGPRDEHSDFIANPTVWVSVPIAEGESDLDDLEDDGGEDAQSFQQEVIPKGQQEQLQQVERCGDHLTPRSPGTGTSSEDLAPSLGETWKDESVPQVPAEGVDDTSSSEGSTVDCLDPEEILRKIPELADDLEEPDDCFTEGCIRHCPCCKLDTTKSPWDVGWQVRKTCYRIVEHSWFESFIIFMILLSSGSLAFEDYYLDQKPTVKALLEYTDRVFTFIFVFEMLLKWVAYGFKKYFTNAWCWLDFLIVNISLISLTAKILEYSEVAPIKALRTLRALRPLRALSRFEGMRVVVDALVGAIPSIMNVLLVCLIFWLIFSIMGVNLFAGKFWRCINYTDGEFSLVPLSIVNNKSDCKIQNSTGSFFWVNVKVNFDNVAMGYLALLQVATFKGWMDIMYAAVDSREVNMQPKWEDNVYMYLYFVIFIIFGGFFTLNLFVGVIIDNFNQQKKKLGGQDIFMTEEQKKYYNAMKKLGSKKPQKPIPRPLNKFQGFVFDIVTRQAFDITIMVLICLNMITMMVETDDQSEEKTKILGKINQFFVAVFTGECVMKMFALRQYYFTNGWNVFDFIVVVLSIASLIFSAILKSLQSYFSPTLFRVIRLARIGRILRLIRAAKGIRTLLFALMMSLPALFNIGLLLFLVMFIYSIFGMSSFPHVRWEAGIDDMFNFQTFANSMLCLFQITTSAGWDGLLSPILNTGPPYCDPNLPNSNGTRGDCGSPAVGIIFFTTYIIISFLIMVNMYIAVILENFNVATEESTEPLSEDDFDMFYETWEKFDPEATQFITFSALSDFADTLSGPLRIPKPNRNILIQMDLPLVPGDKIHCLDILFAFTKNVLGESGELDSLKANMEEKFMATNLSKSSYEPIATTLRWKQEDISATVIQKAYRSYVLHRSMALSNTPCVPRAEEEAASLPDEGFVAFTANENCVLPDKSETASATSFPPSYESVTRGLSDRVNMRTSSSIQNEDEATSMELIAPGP

`CC(C)COC(=O)NC1CCN(c2nc(-c3ccccc3O)cc3ccccc23)CC1` [Compound 1, Isobutyl 1-(3-(2-hydroxyphenyl)isoquinolin-1-yl)piperidin-4-ylcarbamate] showed an IC50 (NaV1.8 [1]) of 10000 to 15000 nM.
Work on `CC(C)COC(=O)N1CCN(c2nc(-c3ccccc3O)cc3ccccc23)CC1` [Compound 3, Isobutyl 4-(3-(2-hydroxyphenyl)isoquinolin-1-yl)piperazine-1-carboxylate] yielded an IC50 (NaV1.8 [1]) greater than 15000 nM.
`CC(C)COC(=O)N1CCN(c2nc(-c3ccccc3C(F)F)cc3ccccc23)CC1` [Compound 4, Isobutyl 4-(3-(2-(difluoromethyl)phenyl)isoquinolin-1-yl)piperazine-1-carboxylate] showed an IC50 (NaV1.8 [1]) greater than 15000 nM.
For `NCC1(CC(=O)O)CCCCC1` [Gabapentin], the “share of patients in whom it works” value (neuropathic pain) is listed as 60%.
In the case of `NC1=N[C@H](O)[C@H]2[C@H]3O[C@]4(O)O[C@@H]([C@@H](O)[C@@]2(N1)[C@@H]4O)[C@]3(O)CO` [TTX, tetrodotoxin], the IC50 (NaV1.2) is listed as 10 nM, the IC50 (NaV1.9) is listed as 1000 nM and the IC50 (NaV1.8 [2]) is listed as greater than 50000 nM. The IC50 (NaV1.3) was 15 nM, the IC50 (NaV1.6) was 6 nM and the IC50 (NaV1.1) was 10 nM.
